Source: patent publication US5236914A, “Derivatives of metalloporphyrins and application thereof for therapeutic purposes and in preparing hybrid molecules” (Centre National de la Recherche Scientifique (CNRS), priority 1988, dated 1993)
“Also recorded” adds a separate entry of the source. Like-named read-outs stand apart in the source and are kept apart here.

Legend:
L1210 cells = assay: cytotoxic activity on murine leukemia cells of the L1210 type (inhibition of cell growth); assay type: cell-based; settings: in vitro, only ID50 lower than 2 μM considered significant, read-out: ID50 (dose inhibiting 50% of cell growth)
Description: The cytotoxic activity was determined on murine leukemia cells of the L1210 type according to a method already described (by C. Paoletti, S. Cros eta al., Chem. Bio. Interact, 25, 45 […]. The effect on cell growth is expressed in terms of the dose inhibiting 50% of cell growth (ID50). Only the values of ID50 lower than 2 μM can be considered as being significant from the biological point of view.

DNA = settings: in the presence of ferric ions, molecular oxygen and reducers; cited from earlier work
[1] = system: supercoiled form (form I) of the DNA of the bacteriophage OX 174; assay: nuclease activity: cleavage of supercoiled DNA observed by electrophoresis on agarose gel; assay type: biochemical; settings: for Form I / Form II / Form III: 2 min with oxidant
Description: In fact, only 13% of form I remains at the end of 2 min in the presence of 250 nM of the metalloporphyrin and 5 μM of potassium hydrogen persulfate, KHSO5. The cleavages are single-strandcleavages since the form II (circular duplex DNA with one cleavage) accumulates before being converted to form III (linear duplex DNA). The experimental conditions and the details of the analytical method are given in the reference Fouquet et al. (cf. page 1).
1 μM of metalloporphyrin
pre-incubation time (DNA +
a) 20 min., b) 1 min. time of incubation

[2] = 250 nM metalloporphyrin; 5 μM KHSO5; pre-incubation a) 20 min
[3] = 250 nM metalloporphyrin; 5 μM KHSO5; pre-incubation b) 1 min
[4] = 1 μM metalloporphyrin; 5 μM KHSO5; pre-incubation a) 20 min

**Q.** Which IC50 (L1210 cells; Mus musculus) does the source give for `COc1ccc2[nH]c3c(C)c4cc[n+](CCCCC(=O)O)cc4c(C)c3c2c1` [5 b), N^2-(4-carboxybutyl)-9-methoxy-ellipticinium chloride] here?
**A.** Its IC50 is over 23 µM.

**Q.** Which IC50 (L1210 cells) does the source give for “Manganese (III) 5-(4-hydroxyphenyl)-10, 15, 20-tris (N-methyl-4-pyridyl)-porphyrin tetraacetate [2 n) (Mn)]” here?
**A.** Its IC50 is 0.68 µM.

**Q.** Which “nuclease activity in words” value (DNA) does the source give for bleomycin here?
**A.** The value was “high nuclease activity”.

**Q.** Which “Form I” value [1, 2] does the source give for `CC(=O)[O-].CC(=O)[O-].CC(=O)[O-].CC(=O)[O-].CC(=O)[O-].C[n+]1ccc(-c2c3nc(c(-c4cc[n+](C)cc4)c4ccc([n-]4)c(-c4cc[n+](C)cc4)c4nc(c(-c5ccc([N+](C)(C)C)cc5)c5ccc2[n-]5)C=C4)C=C3)cc1.[Mn+3]` [1 h) (Mn), Manganese (III) 5-(4-trimethylaminophenyl)-10, 15, 20-tris (N-methyl-4 pyridyl)-porphyrin pentaacetate] here?
**A.** The value was 13%.

**Q.** And the “Form II” value [1, 2]?
**A.** The value was 78%.

**Q.** What about the “Form III” value [1, 2] of the same compound?
**A.** The value was 9%.

**Q.** What about the “Form I” value [1, 3] of the same compound?
**A.** Its value is 63%.

**Q.** What about the “Form II” value [1, 3] of the same compound?
**A.** Its value is 37%.

**Q.** And the “form I remaining at the end of 2 min” value ([1]; 250 nM metalloporphyrin, 5 μM potassium hydrogen persulfate KHSO5)?
**A.** The value was 13%.

**Q.** And the “Form II” value [1, 4]?
**A.** The value was 59%.

**Q.** What about the “Form III” value [1, 4] of the same compound?
**A.** The value was 41%.

**Q.** What about the “efficacy of cleavage / nuclease activity in words” value ([1]; DNA in vitro, listed as 1h) of the same compound?
**A.** Its value is “very marked; also recorded: single-strandcleavages”.

**Q.** What about the IC50 (L1210 cells) of the same compound?
**A.** Its IC50 is 0.54 µM.
